This passage reports Ki results from article PMC3218208 (Nature chemical biology, 2011).

The assay concerns the target Enzyme I (EI, PtsI) (Escherichia coli, UniProt P08839). In words: […] pyruvate/PEP isotope exchange assay with LC-MS/MS on purified enzyme. The assay is classed as biochemical.

Compound `O=C(O)CCC(=O)C(=O)O` [αKG, α-ketoglutarate] showed a Ki of 1300 ± 100 µM.

One may read the Ki as the equilibrium dissociation constant of an inhibitor or competing ligand from its target.
